Experimental data reported in patent US10751356B2, “Compositions and methods for transient up-regulation of Myc in B-cell lymphomas for enhancing P53 independent apoptotic responses to chemotherapy” (THE CHILDREN'S HOSPITAL OF PHILADELPHIA, priority 2013, dated 2020).

What was measured:
Myc = Myc stabilization in B lymphoma cell lines with WT or mutant Myc-Thr58 treated with CHIR-99021 (FIG. 7); assay type: cell-based; conditions: B lymphoma cell lines with WT-Myc-Thr58 or Mut-Myc-Thr58, treated for indicated periods of time
Description: FIG. 7: Stabilization of Myc by GSK3-inhibitors requires retention of the Myc-Threonine 58 residue: B lymphoma cell lines with WT-Myc-Thr58 (left panel) or Mut-Myc-Thr58 (right panel) were treated with CHIR-99021 for indicated periods of time.
As discussed above, treatment of Ramos cells [mutant for p53 and wild type for Myc (intact Threonine-58)] with GSK3-inhibitors increases the apoptotic response to drugs used to treat B cell lymphomas and leukemias within the CHOP-chemotherapeutic regimen: vincristine and doxorubicin. In our model, GSK3 inhibitors prevent phosphorylation of Myc at its Thr-58 residue by GSK3, inhibiting Myc degradation and inducing a transient stabilization and increase in the amount of the Myc protein. It has previously been shown that Myc-Thr58 is a hot spot for mutations in Burkitt's Lymphoma (Smith-Sorensen et al, JBC 1996), and when Myc-Thr58 is altered, the effect of transient stabilization induced by GSK3-inhibitors is lost (FIG. 7). Thus, cooperation of GSK3-inhibitors and chemotherapeutic drugs require retention of the Myc-Threonine-58 residue.

Ramos cells = experiment: Yo-Pro flow cytometry of Ramos cells, apoptotic response to TRAIL (FIG. 8); assay type: cell-based, human; conditions: Ramos cells pre-treated with CHIR99021 for 2 hours followed by 5 h of TRAIL
Description: Ramos cells where left untreated (top-left panel), treated with TRAIL for 5 h (top-right panel), treated with CHIR99021 alone (bottom-left panel) or pre-treated with CHIR99021 for 2 hours followed by 5 h of TRAIL (bottom-right panel). Percentage of death cells was measured by incorporation of the nuclear staining Yo-Pro. Percentages of living and apoptotic cells are shown in the M4 and M5 gates respectively. […] TRAIL engages the extrinsic apoptotic pathway, activating Caspase-8, and is currently in clinical trials for the treatment of different oncological malignancies (reviewed in Stuckey and Shah, Trends in Mol Med 2013).

Raji cells [1] = experiment: Immunoblotting of Raji cells treated with TRAIL with or without CHIR-99021 (FIG. 9A); assay type: cell-based, human
Description: (§1) Raji cells were treated with indicated concentrations of TRAIL for 16 h in the presence or absence of CHIR-99021. (FIG. 9A) Immunoblotting with antibodies to detect cleavage of PARP and caspase-8, as well as Myc, beta-catenin and loading controls Tutbulin, Actin and GAPDH. (FIG. 9B) Caspase-3/7 activity were measured using the bioluminescent-based Caspase-3/7 Glo Kit (Promega). Fold increase in caspase activities relative to untreated cells, are shown for cells treated with TRAIL alone (light grey bars) or with TRAIL and CHIR-99021 (dark grey bars).
(§2) This finding is relevant since, as mentioned above, Threonine-58 is a hot spot for mutations in Burkitt's lymphoma (Smith-Sorensen et al, JBC 1996).

Raji cells [2] = experiment: Caspase-3/7 Glo activity in Raji cells treated with TRAIL with or without CHIR-99021 (FIG. 9B); assay type: cell-based, human; conditions: increasing concentrations of TRAIL in presence or absence of CHIR-99021
Description: as §1, §2

Myc/p53ER™ cells = experiment: Apoptosis of Myc/p53ER B-lymphoma cells (FIGS. 1-3); assay type: cell-based, mice
Text: Because many Myc-driven tumors are defective for p53 activity, we sought to determine whether transient up-regulation of Myc also increases cell death in response to chemotherapeutic drugs in a p53-deficient background. For this purpose, we used B-lymphoma cells isolated from bone marrows of p53ER™ knock-in mice and subsequently transduced with a Myc-expressing retrovirus (2,3). This inducible system allowed us to distinguish between p53-dependent (cells treated with tamoxifen) and independent (no tamoxifen added) cell death. Additionally, instead of modulating Myc levels through miRNA inhibitors, which currently have limited clinical utility, we increased Myc stability with a small molecule inhibitor of GSK3β, which promotes proteosomal degradation of Myc. […] To validate this effect in a more relevant setting, we inhibited GSK3β in various Burkitt's lymphoma cell lines and achieved consistent up-regulation of Myc.

SMILES: Cc1c[nH]c(-c2cnc(NCCNc3ccc(C#N)cn3)nc2-c2ccc(Cl)cc2Cl)n1 [CHIR-99021, 6-{2-[4-(2,4-dichlorophenyl)-5-(4-methyl-1H-imidazol-2-yl)-pyrimidin-2-ylamino]ethyl-amino}nicotinonitrile]
- stabilization of Myc (Myc): induces stabilization of Myc only when the Myc-Thr-58 residue is retained
- apoptotic response to TRAIL (percentage of dead cells by Yo-Pro) (Ramos cells): increases the apoptotic response to TRAIL
- cleaved caspase 8 and cleaved PARP by immunoblotting (Raji cells [1]; Raji cells pre-treated with CHIR-99021 followed by TRAIL vs TRAIL only): increase in the amount of cleaved caspase 8 and cleaved PARP
- apoptotic response to TRAIL (Raji cells [1]; Raji cells, TRAIL for 16 h in presence or absence of CHIR-99021): increases the apoptotic response to TRAIL
- levels of beta-catenin (Raji cells [1]; Raji cells, immunoblotting): increased levels of beta-catenin
- levels of mutant Myc (Raji cells [1]; Raji cells, immunoblotting): remain constant
- cell death with TRAIL and CHIR-99021 (Raji cells [1]; Raji cells, no functional p53 and mutant Myc-thr58): killed Raji cells
- caspase 3 activity (Raji cells [2]): higher levels of caspase-3 activity

SMILES: COc1cccc2c1C(=O)c1c(O)c3c(c(O)c1C2=O)C[C@@](O)(C(=O)CO)C[C@@H]3O[C@H]1C[C@H](N)[C@H](O)[C@H](C)O1 [doxorubicin]
- cell killing / apoptosis (Myc/p53ER™ cells; absence of active p53 (no tamoxifen)): cell killing was rather inefficient

SMILES: CC/C(=C(\c1ccccc1)c1ccc(OCCN(C)C)cc1)c1ccccc1 [tamoxifen]
- apoptosis by activation of p53 (Myc/p53ER™ cells; tamoxifen added, without doxorubicin or modulation of Myc): sufficient to induce robust apoptosis
